# Source: US20250387385A1, “TREATMENT FOR GLOMERULAR DISEASES” (ZYDUS Lifesciences Limited, priority 2022, published 2025)
# Key:
# db/db mice = experiment: Diabetes induced renal dysfunction in db/db mice; type: in vivo; settings: one kidney removed, 15 mg/kg for eight weeks; for Urine microalbumin (reduction): reduction against diabetic mice
# Procedure: For inducing diabetes-induced renal dysfunction, one kidney was removed from male db/db mice and they were treated with compound of formula (Ia) and combination for 8 weeks. At the end of treatment, renal dysfunction was estimated. Histological change in renal disease was also accessed with biochemical changes in serum and urine. Male db/db mice were randomized and were treated with compound of formula (Ia) (15 mg/kg) for eight weeks. At the end of treatment serum creatinine, serum urea and urine microalbumin was measured.
# BSA treated mice = experiment: Cationic bovine serum albumin (cBSA) induced nephritis in male C57 mice; type: in vivo; settings: reduction against BSA treated mice, 24 h urine on 11th day, oral, 10 days, formula (Ia) 15 mg/kg, Iptacopan 20 mg/kg BID
# Procedure: Male C57 mice were treated with bovine serum albumin (BSA) at 2, 4, 6, 8 and 10 mg/kg on day 1, 2, 3, 4, and 5 days by intraperitoneal route, respectively. The BSA at 10 mg/kg was treated for next 5 days. On the same day, mice were treated with either vehicle/compound of formula (Ia) (15 mg/kg) and combination of compound of formula (Ia) (15 mg/kg) and Iptacopan (20 mg/kg, BID) by oral route and continued for 10 days. On 11th day mice kept in metabolic cage and 24 h urine protein excretion was measured.
# HIF = settings: animal model of anemia; reference 10; cited from earlier work
# ischemia condition = settings: reference 12, cited from earlier work
# LPS treated mice = experiment: LPS-induced nephritis in C57 mice; type: in vivo; settings: serum 24 h after LPS, oral, formula (Ia) 15 mg/kg, Iptacopan 20 mg/kg twice a day; for Serum creatinine (reduction): reduction against LPS treated mice; for Serum urea (reduction): reduction compared with LPS treated mice
# Procedure: Single dose of lipopolysachharide (LPS)-induced acute nephritis was generated in C57 mice and the effect of compound of formula (Ia) and combination as shown below. Male C57 mice were treated with vehicle/compound of formula (Ia) (15 mg/kg) and combination of compound of formula (Ia) (15 mg/kg) and Iptacopan (20 mg/kg, twice a day) by oral route. These mice were bled after 24 h of LPS treatment and serum was obtained. The creatinine and urea levels were measured in the serum.
# doxorubicin treated mice = experiment: Doxorubicin-induced glomerulosclerosis in male Balb/c mice; type: in vivo; settings: reduction against doxorubicin treated animals, 24 h urine, oral, two weeks, formula (Ia) 15 mg/kg, Fimasartan 15 mg/kg
# Procedure: Male Balb/c mice were treated with doxorubicin (10 mg/kg, IV). After 5 weeks of treatment, mice were randomized based on protein excretion urine into four groups: Doxorubicin, compound of formula (Ia) (15 mg/kg) and combination of compound of formula (Ia) (15 mg/kg) and Fimasartan (15 mg/kg) by oral route. The treatment continued for two weeks. These mice kept in metabolic cage and 24 h urine protein excretion was measured.
# hemoglobin = settings: clinical trials; reference 11; cited from earlier work
# 5/6 nephrectomized rat = experiment: 5/6 nephrectomy induced renal dysfunction in male SD rats; type: in vivo; settings: 5/6 nephrectomized SD rats, 15 mg/kg for four weeks
# Procedure: Male SD rats will be operated for 5/6 nephrectomy to induce the focal segmental glomerulosclerosis. After a week of recovery, animals were treated with compound of formula (Ia). The randomized rats were treated with compound of formula (Ia) (15 mg/kg) for four weeks. At the end of treatment serum creatinine, serum urea and urine microalbumin was measured.
# [1] = listed as Compound of formula (Ia)
# [2] = listed as compound of formula (Ia)
smiles,measurement,setting,value
"O=C(O)CNC(=O)c1c(O)c2ccccc2n(OCC2CC2)c1=O [Formula (Ia), Desidustat]",Serum creatinine (reduction),db/db mice,28.4 ± 4.4%
same,Serum urea (reduction),db/db mice,25.8 ± 4.8%
same,Serum creatinine (reduction),db/db mice; [1],28.4±4.4%
same,Serum urea (reduction),db/db mice; [1],25.8±4.8%
same,Urine microalbumin (reduction),db/db mice,50.2 ± 3.2%
same,Urine microalbumin (reduction),db/db mice; [1],50.2±3.2%
same,Urine total protein (reduction),BSA treated mice,40.1 ± 7.6%
same,Urine total protein (reduction),BSA treated mice; [1],40.1±7.6%
same,HIF stabilisation,HIF,stabilizes HIF
same,erythropoiesis,HIF,induces erythropoiesis
same,IL-1β levels,ischemia condition; ischemia condition,reduced
same,IL-6 levels,ischemia condition; ischemia condition,reduced
same,MDA,ischemia condition; oxidative stress,decreases
same,SOD,ischemia condition; oxidative stress,decreases
same,Serum creatinine (reduction),LPS treated mice,34.1 ± 5.2%
same,Serum creatinine (reduction),LPS treated mice; [2],34.1±5.2%
same,Serum urea (reduction),LPS treated mice,44.9 ± 5.2%
same,Serum urea (reduction),LPS treated mice; [2],44.9 ± 5.2%
same,Urine total protein (reduction),doxorubicin treated mice,47.8 ± 5.8%
same,Urine total protein (reduction),doxorubicin treated mice; [2],47.8±5.8%
same,hemoglobin,hemoglobin,improves hemoglobin
same,Microalbumin (reduction of urinary excretion),5/6 nephrectomized rat,35.9 ± 12.0%
same,Serum creatinine (reduction),5/6 nephrectomized rat,14.9 ± 3.2%
same,Serum urea (reduction),5/6 nephrectomized rat,15.9 ± 8.8%
same,Microalbumin (reduction of urinary excretion),5/6 nephrectomized rat; [1],35.9±12.0%
same,Serum creatinine (reduction),5/6 nephrectomized rat; [1],14.9±3.2%
same,Serum urea (reduction),5/6 nephrectomized rat; [1],15.9±8.8%
